Data on one compound can be found in patent publication EP2974714B1, “USE OF DERIVATIVES WITH C-O-P BONDS IN PATIENTS WITH RENAL FAILURE” (LABORATORIS SANIFIT, S.L., priority 2013, dated 2014).

Broadly, the EC50 is the concentration needed to bring the measured effect to its halfway point. A low value points to a more potent agent.

SMILES strings stand for the structures.

The test system of one data set is proteins. The data set can be described thus: Binding of IP6 to proteins (dialysability). Format: in vitro ADME.
For data set [1], the system named is vit D-induced cardiovascular calcification in rats. The data set can be described thus: Inhibition of vit D-induced (300,000 IU/kg x 3) cardiovascular calcification by s.c. IP6. Format: in vivo, male SD rats. As for the experimental part:
Experimental: male SD rats were divided into 9 groups. Two of said groups (sham and control groups) received s.c. saline 2 ml/kg; 6 groups received s.c. […] One group was treated with a s.c. Alzet pump loaded with 200 mg/ml IP6. Calcification was induced by oral administration of 300,000 IU/kg vitamin D (2 ml/kg) for 3 days starting on treatment day 3. […] The calcium content in heart, aorta and kidneys was determined after treatment for 7 days.

Data set [2] in a line: HAP crystallisation induction period (synergy with other treatments). The class given is physicochemical. As to the method: Experimental: hydroxyapatite (HAP) was crystallised by mixing appropriate concentrations of calcium and phosphate at pH 7.4. The effect of cinacalcet and sevelamer was simulated by suitably modifying the calcium and phosphate concentrations. The induction period (time required for HAP to begin to crystallise) was recorded as the analytical signal.

The subject of data set [3] is tissue calcification in uraemic animals. The data set can be described thus: Adenine model, non-bolus-type intravascular administration. Format: in vivo, male Wistar rats. As for the experimental part:
Experimental: CKD was induced in 2 groups (n=12) of male Wistar rats by oral (p.o.) treatment with adenine (600 mg/kg/day) daily for 10 days. After treatment with adenine, the rats received alpha-calcidol at a dose of 300 ng/kg (3x/week, p.o.) until day 28. From day 0 until sacrifice (day 28), the animals were treated with an intravascular infusion of 50 mg/kg IP6 or saline for 4 hours. After 28 days the aorta and heart were collected, and the tissue calcium content determined.

A short description of data set [4]: In vitro affinity (adsorption) of IP6 for hydroxyapatite. Format: binding. To be noted: for maximum adsorption of IP6 on the HAP surface: 7.6 µM IP6 for 8 hours. As to the method:
[…] The total quantity of IP6 bound to the surface of the target (HAP) was quantified.
To characterise the behaviour of IP6 binding, the EC50 and Emax for the adsorption thereof on HAP were calculated. This was performed using a non-linear regression model (Log[agonist] vs. response - slope variable; GraphPad Prism software).

Data set [5] has as its system tissue calcification in an animal model of chronic renal impairment (adenine). The data set can be described thus: Adenine model, bolus-type s.c. administration. The class given is in vivo, male Wistar rats. Conditions: s.c. bolus 3, 10 and 30 mg/kg, 28 days, adenine uraemic rats. As for the experimental part: Experimental: CKD was induced in 4 groups (n=12) of male Wistar rats by oral (p.o.) treatment with adenine (600 mg/kg/day) daily for 10 days. After treatment with adenine, the rats received alpha-calcidol at a dose of 300 ng/kg (3x/week, p.o.) until day 28. From day 0 until sacrifice (day 28), the animals were treated with a 2 ml/kg s.c. bolus of 0, 3, 10 and 30 mg/kg IP6. At each treatment, 3 additional animals were included to evaluate the […] for IP6. After 28 days the aorta, heart and right kidney were collected, and the tissue calcium content determined.

[6] abbreviates: intravascular infusion of 50 mg/kg for 4 hours, 28 days, adenine uraemic rats.

In the case of `O=P(O)(O)O[C@H]1[C@H](OP(=O)(O)O)[C@@H](OP(=O)(O)O)[C@H](OP(=O)(O)O)[C@@H](OP(=O)(O)O)[C@H]1OP(=O)(O)O` [IP6, inositol hexaphosphate], the “binding of IP6 to proteins” value in the data set on proteins is given as 70-90%. Further, in the data set with proteins, the “compound available to be dialysed” value is given as 10-30%. Further, the reduction in calcification in data set [1] (prolonged administration, s.c. Alzet pump loaded with 200 mg/ml IP6) is reported as 85%. Besides, the “efficacy (inhibition of calcification)” value in data set [1] (s.c. doses of 60 and 100 mg/kg) is given as “approximately 60%”. Besides, in data set [1] (s.c., 7 days treatment), the “minimum dose that produced a significant effect on calcification” value was 10 mg/kg. Also, in data set [1] (s.c., dose-response), the “EC50 for inhibition of aortic calcification” value came to 3.75 mg/kg. In addition, the “Emax for inhibition of aortic calcification” value in data set [1] (s.c., dose-response) came to 65.5%. In addition, in data set [2] (11.4 µM IP6, pH 7.4, control 8 minutes), the “induction time (time required for HAP to begin to crystallise)” value amounted to 28 min. In addition, the “effect of adding IP6 to simulated cinacalcet and sevelamer” value in data set [2] (IP6 0-11.4 µM with constant simulated concentration of cinacalcet or sevelamer) is “clear synergistic effect”. For the same compound, in data set [3] (due to high metabolic rate, 50 mg/kg infusion, uraemic rats), the “reduction of plasma IP6 levels by the end of the experiment” value is reported as 90%. The “reduction in average calcification in the aorta” value in data set [3] (setting [6]) worked out at 80%. For the same compound, the “reduction in average calcification in the heart” value in data set [3] (setting [6]) turned out to be 85%. For the same compound, the “maximum adsorption of IP6 on the HAP surface” value in data set [4] (25 mg HAP) is 6.42 mg; in data set [4] (300 mg HAP), 4.8 mg. Also, the EC50 stood at 460 nM in data set [4] (25 mg HAP, non-linear regression); 960 nM in data set [4] (75 mg HAP, non-linear regression); 1220 nM in data set [4] (130 mg HAP, non-linear regression); 2090 nM in data set [4] (300 mg HAP, non-linear regression). Further, in data set [4] (37°C, pH 7.4), the “IP6 concentration at saturation of adsorption on HAP” value was not below 7.6 µM. Also, the “Emax for adsorption on HAP (saturation value)” value in data set [4] (non-linear regression) is recorded as 6.42 mg/g. Further, the “calcification inhibition (aorta, heart, right kidney)” value in data set [5] was “no evidence of calcification inhibition”.
